Legend:
cell culture = assay: Antimitotic activity in cell culture; format: cell-based; settings: concentration at which activity is seen
Text: (§1) The potent oncolytic activity of the compound to be employed in the present method of treatment has been established in standard tests designed to evaluate antitumor activity. […] The effect on spindle; microtubules appears to reflect a specific effect on the microtubule organizing center of the spindle, i.e., the centrosomes. These studies have been documented by immunofluorescent light microscopy, transmission electron microscopy and flow cytometric techniques. […] In cell culture, the compound has antimitotic activity at 2.5 u.g/ml and affects mitochondrial function at 0.01 u.g/ml as measured by alterations in Rhodamine 123 binding.

[1] = system: Chinese hamster ovary cells; assay: Cell cycle accumulation in cells grown in low calcium medium; format: cell-based
Text: as §1

cytoplasmic microtubules = assay: Cell biology studies of microtubules (immunofluorescent light microscopy, transmission electron microscopy, flow cytometry); format: cell-based; settings: appears to affect only the spindle microtubules
Text: as §1

M-5 Ovarian Carcinoma = assay: In vivo tumor growth inhibition, delayed treatment of established tumor in mice; settings: I.V. injection twice daily for five days, 5 days delay following inoculation
Experimental: (§2) The compound of the above example has been extensively evaluated for oncolytic activity in in vivo laboratory studies. In a typical experiment, laboratory mice were infected by subcutaneous implantation of a tumor tissue in the axillary region of the body. The implantations were accomplished by means of a trocar. Initial tumor size in each animal generally was about 2 square millimeters. Control animals received saline. Tumors were measured using vernier calipers (length and width in mm) following a specified period of treatment. The length and width measurements were converted to tumor weight by the formula: • The percent inhibition of tumor growth was then calculated for each dose level at which the compound was evaluated. Typical tumor systems implanted and against which the compound was evaluated include the CA-755 strain of adenocarcinoma, the M-5 ovarian carcinoma, the 6C3HED lymphosarcoma, the X-5563 plasma cell myeloma, the Lewis lung carcinoma, colon carcinoma-26, and C3H mammary adenocarcinoma.
(§3) Table II presents the results of studies carried out substantially as described above, except the treatment regimens were delayed for a short period following inoculation to permit the tumor to become established and start growing. Treatment consisted of I.V. injection of 02 ml of the appropriate amount of R-N-(2-phenyl-2-hydroxyethyl)-1,1-dimethyl-3-(4-aminocarbonylphenyl)propylamine hydrochloride in 5% aqueous saline twice daily for five days. Tumors were then measured as described above and compared with untreated controls.

Colon Carcinoma-26 = assay: as above; settings: I.V. injection twice daily for five days, 3 days delay following inoculation
Experimental: as §2, §3

Lewis Lung Carcinoma = assay: In vivo tumor growth inhibition, subcutaneously implanted tumor in mice; settings: intravenous injection twice daily for five days, started the day following inoculation
Experimental: as §2
(§4) Each test group consisted of ten mice. R-N-(2-phenyl-2-hydroxyethyl)-1,i-dimethyl-3-(4-aminocarbonylphenyl)propylamine hydrochloride was dissolved in 5% aqueous saline and administered twice daily for five days as a 0.2 ml intravenous injection. Treatment was initiated on the day following inoculation of the test animals.

[2] = system: C3H Mammary Adenocarcinoma; assay: as above; settings: intravenous injection twice daily for five days, started the day following inoculation
Experimental: as §2, §4

[3] = system: X-5563 Plasma Cell Myeloma; assay: as above; settings: intravenous injection twice daily for five days, started the day following inoculation
Experimental: as §2, §4

6C3HED Lymphosarcoma = assay: as above; settings: intravenous injection twice daily for five days, started the day following inoculation
Experimental: as §2, §4

CA-755 Adenocarcinoma = assay: as above; settings: intravenous injection twice daily for five days, started the day following inoculation
Experimental: as §2, §4

CC(C)(CCc1ccc(C(N)=O)cc1)NC[C@H](O)c1ccccc1.Cl [Compound, R-N-(2-phenyl-2-hydroxyethyl)-1,1-dimethyl-3-(4-aminocarbonylphenyl)propylamine hydrochloride]
minimal effective concentration (cell culture): 2.5 µg/mL | S-phase accumulation [1]: causes an S-phase accumulation | effect on cytoplasmic microtubules (cytoplasmic microtubules): no apparent effect | % Inhibition (M-5 Ovarian Carcinoma; Dose 20 (mg/ml)): 40% | Deaths/total mice in group (M-5 Ovarian Carcinoma; Dose 20 (mg/ml)): 0/10 | % Inhibition (M-5 Ovarian Carcinoma; Dose 40 (mg/ml)): 61% | Deaths/total mice in group (M-5 Ovarian Carcinoma; Dose 40 (mg/ml)): 0/10 | % Inhibition (M-5 Ovarian Carcinoma; Dose 80 (mg/ml)): 81% | Deaths/total mice in group (M-5 Ovarian Carcinoma; Dose 80 (mg/ml)): 0/10 | % Inhibition (Colon Carcinoma-26; Dose 20 (mg/ml)): 30% | Deaths/total mice in group (Colon Carcinoma-26; Dose 20 (mg/ml)): 0/10 | % Inhibition (Colon Carcinoma-26; Dose 40 (mg/ml)): 61% | Deaths/total mice in group (Colon Carcinoma-26; Dose 40 (mg/ml)): 1/10 | % Inhibition (Colon Carcinoma-26; Dose 80 (mg/ml)): 64% | Deaths/total mice in group (Colon Carcinoma-26; Dose 80 (mg/ml)): 4/9 | % Inhibition (Lewis Lung Carcinoma; Dose 20 mg/kg): 35% | % Inhibition (Lewis Lung Carcinoma; Dose 40 mg/kg): 68% | % Inhibition (Lewis Lung Carcinoma; Dose 80 mg/kg): 81% | % Inhibition ([2]; Dose 20 mg/kg): 57% | % Inhibition ([2]; Dose 40 mg/kg): 95% | % Inhibition ([2]; Dose 80 mg/kg): 96% | % Inhibition ([3]; Dose 20 mg/kg): 29% | % Inhibition ([3]; Dose 40 mg/kg): 21% | % Inhibition ([3]; Dose 80 mg/kg): 65% | % Inhibition (6C3HED Lymphosarcoma; Dose 20 mg/kg): 11% | % Inhibition (6C3HED Lymphosarcoma; Dose 40 mg/kg): 9% | % Inhibition (6C3HED Lymphosarcoma; Dose 80 mg/kg): 23% | % Inhibition (CA-755 Adenocarcinoma; Dose 10 mg/kg): 79% | % Inhibition (CA-755 Adenocarcinoma; Dose 20 mg/kg): 95% | % Inhibition (CA-755 Adenocarcinoma; Dose 40 mg/kg): 92% | % Inhibition (CA-755 Adenocarcinoma; Dose 80 mg/kg): 95%
